Columns and labels:
Test in all cases: relative viability (nuclei count vs DMSO), 5 days (fraction); higher = more cells survive
H3255 = tested on: H3255
Method in brief: (§1)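 Relative viability is defined as nuclei in treated wells over nuclei in vehicle wells. Duplicate plates were run and medians reported. Lung cancer cell lines in 1536-well plates were dosed by pin tool one day after seeding, with one drug or with a fixed anchor-drug dose plus five library-drug doses (not always all listed) in √10 steps, and nuclei were counted after 5 days.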

COR-L23 = tested on: COR-L23
Method in brief: as §1

SW 1573 = tested on: SW 1573
Method in brief: as §1

NCI-H23 = tested on: NCI-H23
Method in brief: as §1

PC-3 [JPC-3] = tested on: PC-3 [JPC-3]
Method in brief: as §1

LCLC-103H = tested on: LCLC-103H
Method in brief: as §1

NCI-H650 = tested on: NCI-H650
Method in brief: as §1

NCI-H1651 = tested on: NCI-H1651
Method in brief: as §1

NCI-H1563 = tested on: NCI-H1563
Method in brief: as §1

LU99A = tested on: LU99A
Method in brief: as §1

NCI-H2347 = tested on: NCI-H2347
Method in brief: as §1

NCI-H1793 = tested on: NCI-H1793
Method in brief: as §1

NCI-H1650 = tested on: NCI-H1650
Method in brief: as §1

LCLC-97TM1 = tested on: LCLC-97TM1
Method in brief: as §1

201T = tested on: 201T
Method in brief: as §1

LK-2 = tested on: LK-2
Method in brief: as §1

NCI-H838 = tested on: NCI-H838
Method in brief: as §1

RERF-LC-KJ = tested on: RERF-LC-KJ
Method in brief: as §1

PC-14 = tested on: PC-14
Method in brief: as §1

NCI-H727 = tested on: NCI-H727
Method in brief: as §1

A-427 = tested on: A-427
Method in brief: as §1

NCI-H1944 = tested on: NCI-H1944
Method in brief: as §1

NCI-H460 = tested on: NCI-H460
Method in brief: as §1

`COc1cc(N2CCC(C(N)=O)CC2)ccc1Nc1nc(N)c(Cl)c(Nc2ccccc2S(=O)(=O)C(C)C)n1` [HG-5-88-01] + CS(=O)(=O)N1CCN(Cc2cc3nc(-c4cccc5[nH]ncc45)nc(N4CCOCC4)c3s2)CC1 [Pictilisib] (partner 1 µM) was tested, and the relative viability (H3255; first compound 0.04 µM) was 0.479, the relative viability (H3255; first compound 0.1265 µM) was 0.484 and the relative viability (H3255; first compound 0.4 µM) was 0.449. For the same molecule, the relative viability (H3255; first compound 4 µM) was 0.317, the relative viability (COR-L23; first compound 0.04 µM) was 0.629 and the relative viability (COR-L23; first compound 0.1265 µM) was 0.725. The relative viability (COR-L23; first compound 0.4 µM) was 0.608, the relative viability (COR-L23; first compound 1.265 µM) was 0.371 and the relative viability (COR-L23; first compound 4 µM) was 0.353. It also gave a relative viability (SW 1573; first compound 0.04 µM) of 0.422, a relative viability (SW 1573; first compound 0.1265 µM) of 0.563 and a relative viability (SW 1573; first compound 0.4 µM) of 0.445. The relative viability (SW 1573; first compound 1.265 µM) was 0.392, the relative viability (SW 1573; first compound 4 µM) was 0.489 and the relative viability (NCI-H23; first compound 0.04 µM) was 0.382. It also gave a relative viability (NCI-H23; first compound 0.1265 µM) of 0.572, a relative viability (NCI-H23; first compound 0.4 µM) of 0.469 and a relative viability (NCI-H23; first compound 1.265 µM) of 0.533. For the same molecule, the relative viability (NCI-H23; first compound 4 µM) was 0.35, the relative viability (PC-3 [JPC-3]; first compound 0.04 µM) was 0.69 and the relative viability (PC-3 [JPC-3]; first compound 0.1265 µM) was 0.702. The relative viability (PC-3 [JPC-3]; first compound 0.4 µM) was 0.636, the relative viability (PC-3 [JPC-3]; first compound 1.265 µM) was 0.494 and the relative viability (PC-3 [JPC-3]; first compound 4 µM) was 0.266. For the same molecule, the relative viability (LCLC-103H; first compound 0.04 µM) was 0.643, the relative viability (LCLC-103H; first compound 0.1265 µM) was 0.555 and the relative viability (LCLC-103H; first compound 0.4 µM) was 0.484. The relative viability (LCLC-103H; first compound 1.265 µM) was 0.608, the relative viability (LCLC-103H; first compound 4 µM) was 0.426 and the relative viability (NCI-H650; first compound 0.04 µM) was 0.88. The relative viability (NCI-H650; first compound 0.1265 µM) was 0.925, the relative viability (NCI-H650; first compound 0.4 µM) was 0.864 and the relative viability (NCI-H650; first compound 1.265 µM) was 0.743. The relative viability (NCI-H650; first compound 4 µM) was 0.685, the relative viability (NCI-H1651; first compound 0.04 µM) was 0.51 and the relative viability (NCI-H1651; first compound 0.1265 µM) was 0.609. It also gave a relative viability (NCI-H1651; first compound 0.4 µM) of 0.559, a relative viability (NCI-H1651; first compound 1.265 µM) of 0.646 and a relative viability (NCI-H1651; first compound 4 µM) of 0.646. It also gave a relative viability (NCI-H1563; first compound 0.04 µM) of 0.66, a relative viability (NCI-H1563; first compound 0.1265 µM) of 0.671 and a relative viability (NCI-H1563; first compound 0.4 µM) of 0.638. It also gave a relative viability (NCI-H1563; first compound 1.265 µM) of 0.651, a relative viability (NCI-H1563; first compound 4 µM) of 0.634 and a relative viability (LU99A; first compound 0.04 µM) of 0.31. For the same molecule, the relative viability (LU99A; first compound 0.1265 µM) was 0.315, the relative viability (LU99A; first compound 0.4 µM) was 0.303 and the relative viability (LU99A; first compound 1.265 µM) was 0.318. For the same molecule, the relative viability (LU99A; first compound 4 µM) was 0.215, the relative viability (NCI-H2347; first compound 0.04 µM) was 0.603 and the relative viability (NCI-H2347; first compound 0.1265 µM) was 0.645. The relative viability (NCI-H2347; first compound 0.4 µM) was 0.683, the relative viability (NCI-H2347; first compound 4 µM) was 0.471 and the relative viability (NCI-H1793; first compound 0.1265 µM) was 0.336. It also gave a relative viability (NCI-H1793; first compound 0.4 µM) of 0.3, a relative viability (NCI-H1793; first compound 1.265 µM) of 0.426 and a relative viability (NCI-H1793; first compound 4 µM) of 0.308. It also gave a relative viability (NCI-H1650; first compound 0.04 µM) of 0.583, a relative viability (NCI-H1650; first compound 0.1265 µM) of 0.551 and a relative viability (NCI-H1650; first compound 0.4 µM) of 0.565. It also gave a relative viability (NCI-H1650; first compound 1.265 µM) of 0.519, a relative viability (NCI-H1650; first compound 4 µM) of 0.355 and a relative viability (LCLC-97TM1; first compound 0.04 µM) of 0.156. It also gave a relative viability (LCLC-97TM1; first compound 0.1265 µM) of 0.185, a relative viability (LCLC-97TM1; first compound 0.4 µM) of 0.146 and a relative viability (LCLC-97TM1; first compound 1.265 µM) of 0.213. The relative viability (LCLC-97TM1; first compound 4 µM) was 0.135, the relative viability (201T; first compound 0.04 µM) was 0.71 and the relative viability (201T; first compound 0.1265 µM) was 0.64. It also gave a relative viability (201T; first compound 0.4 µM) of 0.649, a relative viability (201T; first compound 1.265 µM) of 0.729 and a relative viability (201T; first compound 4 µM) of 0.739. It also gave a relative viability (LK-2; first compound 0.04 µM) of 0.632, a relative viability (LK-2; first compound 0.1265 µM) of 0.522 and a relative viability (LK-2; first compound 0.4 µM) of 0.546. It also gave a relative viability (LK-2; first compound 1.265 µM) of 0.386, a relative viability (LK-2; first compound 4 µM) of 0.614 and a relative viability (NCI-H838; first compound 0.04 µM) of 0.312. It also gave a relative viability (NCI-H838; first compound 0.1265 µM) of 0.503, a relative viability (NCI-H838; first compound 0.4 µM) of 0.337 and a relative viability (NCI-H838; first compound 1.265 µM) of 0.393. It also gave a relative viability (NCI-H838; first compound 4 µM) of 0.383, a relative viability (RERF-LC-KJ; first compound 0.04 µM) of 0.588 and a relative viability (RERF-LC-KJ; first compound 0.1265 µM) of 0.714. For the same molecule, the relative viability (RERF-LC-KJ; first compound 0.4 µM) was 0.498, the relative viability (RERF-LC-KJ; first compound 1.265 µM) was 0.481 and the relative viability (RERF-LC-KJ; first compound 4 µM) was 0.412. It also gave a relative viability (PC-14; first compound 0.04 µM) of 0.79, a relative viability (PC-14; first compound 0.1265 µM) of 0.862 and a relative viability (PC-14; first compound 0.4 µM) of 0.658. For the same molecule, the relative viability (PC-14; first compound 1.265 µM) was 0.168, the relative viability (PC-14; first compound 4 µM) was 0.108 and the relative viability (NCI-H727; first compound 0.04 µM) was 0.486. It also gave a relative viability (NCI-H727; first compound 0.1265 µM) of 0.448, a relative viability (NCI-H727; first compound 0.4 µM) of 0.24 and a relative viability (NCI-H727; first compound 1.265 µM) of 0.261. It also gave a relative viability (NCI-H727; first compound 4 µM) of 0.249, a relative viability (A-427; first compound 0.04 µM) of 0.716 and a relative viability (A-427; first compound 0.1265 µM) of 0.812. The relative viability (A-427; first compound 0.4 µM) was 0.706, the relative viability (A-427; first compound 1.265 µM) was 0.914 and the relative viability (A-427; first compound 4 µM) was 0.442. The relative viability (NCI-H1944; first compound 0.04 µM) was 0.319, the relative viability (NCI-H1944; first compound 0.1265 µM) was 0.341 and the relative viability (NCI-H1944; first compound 0.4 µM) was 0.336. For the same molecule, the relative viability (NCI-H1944; first compound 1.265 µM) was 0.334, the relative viability (NCI-H1944; first compound 4 µM) was 0.352 and the relative viability (NCI-H460; first compound 0.04 µM) was 0.379. For the same molecule, the relative viability (NCI-H460; first compound 0.1265 µM) was 0.296, the relative viability (NCI-H460; first compound 0.4 µM) was 0.395 and the relative viability (NCI-H460; first compound 1.265 µM) was 0.332. The relative viability (NCI-H460; first compound 4 µM) was 0.277.

— the supplement of paper PMC10307832
